Experimental data reported in patent US20240103011A1, “LIQUID BIOPSY YIELD ENHANCEMENT” (priority 2021, published 2024).
Where two headings read alike, the source gives them in different places.

Columns and labels:
HSC = conditions: in vivo; cited from earlier work
T cell lymphoma = conditions: T cell lymphoma/Partial remission
Description: (§1) A sample from the subjects is collected at the time of diagnosis (“baseline sample”) and analyzed for tumor mutational burden (TMB) and microsatellite instability (MSI). Subjects are then administered a single dose of plerixafor (10-20 mg), a single dose of motixafortide (0.5-2 mg/kg), a single dose of MGTA-145 (0.0075-0.3 mg/kg), or a single dose of MGTA-145 (0.0075-0.3 mg/kg) in combination with a single dose of plerixafor (0.24 mg/kg), and blood sample collected 1-72 hours later. This blood sample (“LBYE+ sample”) is analyzed for TMB and MSI.
(§2) The change/difference of biomarker detected in the LBYE+ sample and the baseline sample is used by a clinician to predict treatment response and/or make treatment decision.

Colon Cancer = conditions: Colon Cancer/Relapse
Description: as §1, §2

c1cc(CN2CCCNCCNCCCNCC2)ccc1CN1CCCNCCNCCCNCC1 [Plerixafor, 1-{[4-(1,4,8,11-tetrazacyclotetradec-1-ylmethyl)phenyl]methyl}-1,4,8,11-tetrazacyclotetradecane]
HSC mobilization (HSC): rapidly mobilize HSC within hours
VAF, LBYE+ Sample Status (T cell lymphoma; TET2, baseline 23.80%): 20.20%
Genomic variants, LBYE+ Sample Status (T cell lymphoma; after intervening agent, baseline TET2): TET2
TMB, LBYE+ Sample Status (T cell lymphoma; baseline 0.4 m/MB): 0.5 m/MB
MSI, LBYE+ Sample Status (T cell lymphoma; baseline Stable): Stable
VAF, LBYE+ Sample Status (Colon Cancer; APC, baseline 7.80%): 7.30%
VAF, LBYE+ Sample Status (Colon Cancer; TP53, baseline 6.30%): 6.30%
TMB, LBYE+ Sample Status (Colon Cancer; baseline 0.5 m/MB): 1.1 m/MB
MSI, LBYE+ Sample Status (Colon Cancer; baseline Stable): Stable
